Source: publication PMC10046562, “Computational Analysis and Experimental Testing of the Molecular Mode of Action of Gatastatin and Its Derivatives” (Cancers, 2023)

Target: T1, α-β tubulin (β tubulin, porcine brain) (Sus scrofa, UniProt P02550+P02554)
T1 construct: α-β tubulin purified from porcine brains, labeled with RED-NHS; with α tubulin
Test: microscale thermophoresis, labeled tubulin
Assay type: binding

T1 sequence (P02554 whole entry): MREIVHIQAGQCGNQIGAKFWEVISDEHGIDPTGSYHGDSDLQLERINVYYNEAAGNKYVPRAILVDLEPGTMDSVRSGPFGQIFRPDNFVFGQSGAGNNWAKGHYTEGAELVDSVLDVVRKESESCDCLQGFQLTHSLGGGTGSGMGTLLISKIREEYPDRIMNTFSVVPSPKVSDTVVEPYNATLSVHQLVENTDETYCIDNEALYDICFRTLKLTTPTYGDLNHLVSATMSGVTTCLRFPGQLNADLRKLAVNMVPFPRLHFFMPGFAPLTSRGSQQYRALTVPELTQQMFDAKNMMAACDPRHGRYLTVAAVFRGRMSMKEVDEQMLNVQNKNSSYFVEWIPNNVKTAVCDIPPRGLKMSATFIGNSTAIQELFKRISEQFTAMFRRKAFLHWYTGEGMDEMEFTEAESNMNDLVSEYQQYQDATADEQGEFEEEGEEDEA
T1 sequence (P02550 whole entry): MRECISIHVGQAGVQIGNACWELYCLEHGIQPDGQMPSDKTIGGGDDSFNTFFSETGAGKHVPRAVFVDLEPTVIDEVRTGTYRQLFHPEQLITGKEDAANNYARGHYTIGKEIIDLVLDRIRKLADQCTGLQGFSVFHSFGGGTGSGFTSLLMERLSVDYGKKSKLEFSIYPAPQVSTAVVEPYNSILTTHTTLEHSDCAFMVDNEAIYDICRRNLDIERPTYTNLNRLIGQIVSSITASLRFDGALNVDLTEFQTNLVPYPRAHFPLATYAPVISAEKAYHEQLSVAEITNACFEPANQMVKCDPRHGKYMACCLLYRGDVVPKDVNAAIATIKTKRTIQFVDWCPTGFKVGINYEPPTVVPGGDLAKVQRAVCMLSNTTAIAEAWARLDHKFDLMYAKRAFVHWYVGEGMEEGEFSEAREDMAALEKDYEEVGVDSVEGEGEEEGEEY

- Kd: 2160 ± 470 nM
Compound: COc1cc2c(=O)c(-c3cc(OC)c4c(c3OC)OCO4)coc2cc1OCc1ccccc1 [gatastatin]
